# Values quoted from earlier work as cited in EP2871189A1, “High-affinity monoclonal anti-strep-tag antibody” (INSTITUT PASTEUR, priority 2013, dated 2015).
# Target: Strep-Tactin
# Conditions: individual binding site (monovalent interaction) on Strep-Tactin; Schmidt TG et al, J.Mol. Biol. 1996; read-out: dissociation constant
substance,measurement,value
Strep-tag II peptide: peptide tag of minimal sequence WSHPQFEK (SEQ ID NO:9) that binds streptavidin / Strep-Tactin,Kd,~1 µM
